The nature of experiment [1]: Cytotoxicity against mouse 26-L5 cells after 24 hrs by MTT assay. The format is functional. The note with it: read-out: ED50 (the source's name).
In another experiment the test system is HT-1080. The experiment can be described thus: Cytotoxicity against human HT1080 cells after 24 hrs by MTT assay. It counts as functional. The note with it: HT-1080, 24 h, read-out: ED50 (the source's name). In general terms: Formazan colour is commonly taken as a measure of viable cells.

SMILES strings stand for the structures. ≈ marks a conversion by molar mass, not a printed value.

`C=C1CC[C@@H]2[C@](C)(CCC[C@]2(C)C(=O)O)[C@H]1CC/C(C)=C/C(=O)O` [AGATHIC ACID]: the EC50 is 95.9 µg/mL (≈ 287 µM) in experiment [1] and 75.4 µg/mL (≈ 226 µM) in the experiment on HT-1080.

With `COc1cc([C@H]2Oc3c(OC)cc(/C=C/COC(C)=O)cc3[C@@H]2COC(C)=O)ccc1O` [DIMERICCONIFERYLACETATE], the EC50 in experiment [1] was 39.9 µg/mL (≈ 90.1 µM); with HT-1080 it was 38.9 µg/mL (≈ 88 µM).

In the case of `CC(C)=CCc1cc(/C=C/C(=O)O)cc2c1OC(C)(C)C(O)C2` (stereo unspecified), the EC50 in experiment [1] came to 77.1 µg/mL (≈ 244 µM); in the experiment on HT-1080, 71.5 µg/mL (≈ 226 µM).

Turning to `COc1ccc(-c2oc3cc(O)c(OC)c(O)c3c(=O)c2O)cc1` [BETULETOL], the values for the EC50 (in experiment [1]; in the experiment with HT-1080) were 4.95 µg/mL (≈ 15 µM) and 5.83 µg/mL (≈ 17.7 µM), respectively.

As to `C=C(C)[C@H]1Cc2cc(C(C)=O)ccc2O1` [TREMETONE], the EC50 was 58.1 µg/mL (≈ 287 µM) in experiment [1] and 57.4 µg/mL (≈ 284 µM) with HT-1080.

In the case of `COc1ccc(-c2oc3cc(O)cc(O)c3c(=O)c2O)cc1` [KAEMPFERIDE], the EC50 in experiment [1] worked out at 5.95 µg/mL (≈ 19.8 µM); in the experiment on HT-1080, 2.91 µg/mL (≈ 9.69 µM).

As for `COc1cccc2c1C(=O)c1c(O)c3c(c(O)c1C2=O)C[C@@](O)(C(=O)CO)C[C@@H]3O[C@H]1C[C@H](N)[C@H](O)[C@H](C)O1.Cl` [DOXORUBICIN HYDROCHLORIDE], the figures for the EC50 (in experiment [1]; with HT-1080) were 0.015 µg/mL and 0.034 µg/mL, respectively.

With `COc1ccc([C@H]2Oc3cc(O)cc(O)c3C(=O)[C@@H]2O)cc1`, the results for the EC50 (in experiment [1]; in the experiment with HT-1080) were 71 µg/mL (≈ 235 µM) and 27 µg/mL (≈ 89.2 µM), respectively.

On to `C=C[C@](C)(O)CC[C@H]1C(=C)CC[C@@H]2[C@]1(C)CCC[C@]2(C)C(=O)O` [CUPRESSICACID], for which the figures for the EC50 (in experiment [1]; with HT-1080) were greater than 100 µg/mL and 94.9 µg/mL (≈ 296 µM), respectively.

`C=C1CC[C@@H]2[C@](C)(CCC[C@]2(C)C(=O)O)[C@H]1CC/C(C)=C/C(=O)OC`: the EC50 in experiment [1] was greater than 100 µg/mL; in the experiment with HT-1080, 72.8 µg/mL (≈ 209 µM).

Turning to `COc1cc(/C=C/C=O)ccc1O` [CONIFERYL ALDEHYDE], the EC50 in experiment [1] amounted to 10.4 µg/mL (≈ 58.6 µM); in the experiment with HT-1080, 4.05 µg/mL (≈ 22.7 µM).

For `COc1ccc(-c2oc3cc(O)cc(O)c3c(=O)c2OC)cc1` [ERMANIN], the EC50 in experiment [1] was 7.64 µg/mL (≈ 24.3 µM); in the experiment with HT-1080, 2.3 µg/mL (≈ 7.32 µM).

`C=C1CC[C@@H]2[C@](C)(CCC[C@]2(C)C(=O)O)[C@H]1CC/C(C)=C/COC(C)=O`: the EC50 came to 73.3 µg/mL (≈ 202 µM) in experiment [1] and 70.1 µg/mL (≈ 193 µM) with HT-1080.

In the case of `C=C1CC[C@@H]2[C@](C)(CCC[C@]2(C)C(=O)O)[C@H]1CC/C(C)=C/CO` [ISOCUPRESSIC ACID], the figures for the EC50 (in experiment [1]; with HT-1080) were 63.5 µg/mL (≈ 198 µM) and 72.9 µg/mL (≈ 228 µM), respectively.

In the case of `CC(C)=CCc1cc(/C=C/C(=O)O)ccc1OC(=O)CCc1ccccc1` [BACCHARIN], the EC50 in experiment [1] came out at 77.9 µg/mL (≈ 214 µM); in the experiment with HT-1080, 25.9 µg/mL (≈ 71.2 µM).

For `CC(C)=CCc1cc(/C=C/C(=O)O)cc(CC=C(C)C)c1O` [ARTEPILLIN], the EC50 in experiment [1] was determined as 59.3 µg/mL (≈ 197 µM); in the experiment with HT-1080 it was 45.5 µg/mL (≈ 151 µM).

For `CC(C)=CCc1cc(/C=C/C(=O)O)cc2c1OC(C)(C)C=C2` [CULIFOLIN], the EC50 in experiment [1] came to 50.2 µg/mL (≈ 168 µM); with HT-1080, 46.9 µg/mL (≈ 157 µM).

`C=C(CO)[C@H]1Cc2cc(C(C)=O)c(O)cc2O1`: the EC50 in experiment [1] came to 57.1 µg/mL (≈ 244 µM); with HT-1080 it was 45.5 µg/mL (≈ 194 µM).
